Measured values published in patent US20230286973A1, “PROTEIN SECRETION INHIBITORS” (KEZAR LIFE SCIENCES, priority 2020, published 2023).
Like-named read-outs stand apart in the source and are kept apart here.

Legend:
[1] = test system: IL-2-FL/Gaussia Luciferase; assay: Dox Induced IL2-FL-Gluc Assay; assay type: cell-based; details: for IC50: 24 hr Dox induction, 293FRT/TO cells, read-out: 24 hr Dox Inducible IL2FLGluc 293FRT/TO: Mean IC50; for 24 hr Dox Inducible IL2FLGluc 293FRT/TO: IL2/PD1: ratio of IL2FLGluc IC50 to PD1ssGluc IC50
Source text: (§1) Flp-In 293 T-REx™ cells were transfected with pcDNA™5/FRT/TO plasmid inserted with cDNA encoding Gaussia Luciferase fused to the 3′ end of cDNA encoding full length IL-2 (amino acids 1-153). Transfected cells were selected for resistance to the selectable markers Hygromycin and Blasticidin to create a stable cell line that contained the IL-2-FL/Gaussia Luciferase cDNA insert whose expression was regulated under the T-REx™ system. The day before assay, cells were trypsinized and plated in 384-well tissue culture plates. The next day, compound dilutions in DMSO/media containing doxycycline were added to the wells and incubated at 37° C., 5% CO2.
(§2) For chemical structures that include one or more stereoisomers, but are illustrated without indicating stereochemistry, the assay data refers to a mixture of stereoisomers.

[2] = Liver Microsome Stability Assay (rat); details: rat liver microsomes, with NADPH, 1.0 uM compound
Protocol: (§4) Stability of a compound was assessed in the presence of liver microsomes from various sources—mouse, rat, monkey and human liver microsomes. 1.0 uM compound, 0.4% DMSO in 0.1 M Potassium Phosphate with 1.0 mg/mL liver microsomes, were incubated at 37° C. with or without 1 mM NADPH. The samples were quenched at 0, and 30 minutes.

[3] = Liver Microsome Stability Assay (human); details: human liver microsomes, with NADPH, 1.0 uM compound
Protocol: as §4

[4] = Liver Microsome Stability Assay (mouse); details: mouse liver microsomes, with NADPH, 1.0 uM compound
Protocol: as §4

[5] = test system: multiple myeloma cell line U266B1; assay: U266 Cell Viability Assay; assay type: cell-based, human; details: Homo sapiens, U-266, 48 h, U266B1 cells, Celltiter-Glo
Protocol: (§3) The human multiple myeloma cell line U266B1 was cultured in RPMI 1640 media supplemented with 10% fetal bovine serum, 2 mM Glutamine, and 1× Penicillin/Streptomycin. Cells were plated in 384-well tissue culture plates and treated with compound dilutions in DMSO/media. Plates were incubated at 37° C., 5% CO2 for 48 hours. After 48 hours, Celltiter-Glo® (Promega) was added to each well and luciferase signal was quantified using Tecan Infinite M1000 Pro for cell viability determination.
as §2

[6] = test system: PD1-ss+10aa/Gaussia Luciferase; assay: Dox-Induced PD1-ss-Gluc Assay; assay type: cell-based; details: 24 hr Dox induction, 293FRT/TO cells, read-out: 24 hr Dox Inducible PD1ssGluc 293FRT/TO: Mean IC50
Source text: as §1, with “PD1 signal sequence plus 10 amino” for “full length IL-2 (amino”, “(N-[…]-C) (SEQ ID NO: 1).” for “1-153).”, “PD1-ss+10aa/Gaussia” for “IL-2-FL/Gaussia”
as §2

[7] = test system: multiple myeloma cell line NCI-H929; assay: H929 Cell Viability Assay; assay type: cell-based, human; details: Homo sapiens, NCI-H929, 48 h, NCI-H929 cells, Celltiter-Glo
Protocol: as §3, with “NCI-H929” for “U266B1”, “cultured in Advanced RPMI 1640 media (Gibco®) supplemented with 6% fetal bovine serum, 2 mM Glutamine, and 1× Penicillin/Streptomycin. On the day of assay, cells were resuspended” for “cultured”, “Penicillin/Streptomycin and” for “Penicillin/Streptomycin. Cells were”
as §2

[8] = Liver Microsome Stability Assay (monkey); details: monkey liver microsomes, with NADPH, 1.0 uM compound
Protocol: as §4

[9] = '<=>' given where both are I.A.

| SMILES | IC50 ([1]; mean) | 24 hr Dox Inducible IL2FLGluc 293FRT/TO: IL2/PD1 [1, 9] | Liver Microsome Stability (Multiple Species): Rat - % Remaining after 30 min w/NADPH [2] | Liver Microsome Stability (Multiple Species): Human - % Remaining after 30 min w/NADPH [3] | Liver Microsome Stability (Multiple Species): Mouse - % Remaining after 30 min w/NADPH [4] | EC50 [5] | IC50 ([6]; mean) | EC50 [7] | Liver Microsome Stability (Multiple Species): Monkey - % Remaining after 30 min w/NADPH [8] | IC50 [1] | 24 hr Dox Inducible IL2FLGluc 293FRT/TO: IL2/PD1 [1] | IC50 [6] |
| --- | --- | --- | --- | --- | --- | --- | --- | --- | --- | --- | --- | --- |
| O=C(Nc1nc([C@H]2CCCN2c2ccccc2)cs1)c1ccc[nH]1 [Compound E58, (R)-N-(4-(1-phenylpyrrolidin-2-yl)thiazol-2-yl)-1H-pyrrole-2-carboxamide] | > 25 µM | >3.0 | 1.33% | 26.7% | 8.68% | > 25 µM | 8.24 µM | > 25 µM | 7.34% | – | – | – |
| O=C(Nc1nc([C@H]2CCCN2c2ccc(-c3ncco3)cc2)cs1)c1cccn1Cc1ccncc1 [Compound A9, (R)-N-(4-(1-(4-(oxazol-2-yl)phenyl)pyrrolidin-2-yl)thiazol-2-yl)-1-(pyridin-4-ylmethyl)-1H-pyrrole-2-carboxamide] | – | – | 0.8% | 0.71% | 19.8% | > 25 µM | – | 0.519 µM | 0.23% | 0.0171 µM | 2.4 | 0.00722 µM |
| O=C(Nc1nc([C@H]2CCCN2c2ccccc2)cs1)c1cccn1CC1CCC(F)(F)CC1 [Compound C21, (R)-1-((4,4-difluorocyclohexyl)methyl)-N-(4-(1-phenylpyrrolidin-2-yl)thiazol-2-yl)-1H-pyrrole-2-carboxamide] | > 25 µM | – | 12.2% | 64% | 60.5% | > 25 µM | > 25 µM | > 25 µM | 49% | – | – | – |
| C#CCCCn1cccc1C(=O)Nc1nc([C@H]2CCCN2c2ccccc2)cs1 [Compound C31, (R)-1-(pent-4-yn-1-yl)-N-(4-(1-phenylpyrrolidin-2-yl)thiazol-2-yl)-1H-pyrrole-2-carboxamide] | 7.05 µM | 1.7 | 5.84% | 53.4% | 38.7% | > 25 µM | 4.12 µM | > 25 µM | 1.3% | – | – | – |
| O=C(Nc1nc([C@H]2CCCN2c2ccccc2)cs1)c1cccn1CC1CCS(=O)(=O)CC1 [Compound C37, (R)-1-((1,1-dioxidotetrahydro-2H-thiopyran-4-yl)methyl)-N-(4-(1-phenylpyrrolidin-2-yl)thiazol-2-yl)-1H-pyrrole-2-carboxamide] | > 25 µM | – | 0.08% | 6.44% | 26% | > 25 µM | > 25 µM | > 25 µM | 8.58% | – | – | – |
| O=C(Nc1nc([C@H]2CCCN2c2ccccc2)cs1)c1cccn1CC1=CCOCC1 [Compound C57, (R)-1-((3,6-dihydro-2H-pyran-4-yl)methyl)-N-(4-(1-phenylpyrrolidin-2-yl)thiazol-2-yl)-1H-pyrrole-2-carboxamide] | 1.07 µM | 3 | 0.43% | 4.2% | 9.54% | > 25 µM | 0.357 µM | 23.3 µM | 3.43% | – | – | – |
| C#CCn1cccc1C(=O)Nc1nc([C@H]2CCCN2c2ccccc2)cs1 [Compound C33, (R)-N-(4-(1-phenylpyrrolidin-2-yl)thiazol-2-yl)-1-(prop-2-yn-1-yl)-1H-pyrrole-2-carboxamide] | 6.05 µM | 0.63 | 20.3% | 54.7% | 41.1% | > 25 µM | 9.67 µM | 23.8 µM | 65% | – | – | – |
| O=C(Nc1nc([C@H]2CCCN2c2ccccc2)cs1)c1cccn1CCCc1c[nH]nn1 [Compound C27, (R)-1-(3-(1H-1,2,3-triazol-5-yl)propyl)-N-(4-(1-phenylpyrrolidin-2-yl)thiazol-2-yl)-1H-pyrrole-2-carboxamide] | 2.63 µM | 3.9 | 1.26% | 3.25% | 4.86% | > 25 µM | 0.671 µM | 23.9 µM | 3.74% | – | – | – |
| O=C(Nc1nc([C@H]2CCCN2c2ccccc2)cs1)c1cccn1Cc1cnn[nH]1 [Compound C29, (R)-1-((1H-1,2,3-triazol-5-yl)methyl)-N-(4-(1-phenylpyrrolidin-2-yl)thiazol-2-yl)-1H-pyrrole-2-carboxamide] | > 25 µM | >5.1 | 17% | 46.1% | 37.5% | > 25 µM | 4.89 µM | > 25 µM | 41.9% | – | – | – |
| O=C(Nc1nc([C@H]2CCCN2c2ccccc2)cs1)c1cccn1CC1CCCCC1 [Compound C39, (R)-1-(cyclohexylmethyl)-N-(4-(1-phenylpyrrolidin-2-yl)thiazol-2-yl)-1H-pyrrole-2-carboxamide] | 3.35 µM | 1.2 | 56.6% | 79.7% | 64.7% | > 25 µM | 2.75 µM | > 25 µM | 53.9% | – | – | – |
| C#CCCCCn1cccc1C(=O)Nc1nc([C@H]2CCCN2c2ccccc2)cs1 [Compound C30, (R)-1-(hex-5-yn-1-yl)-N-(4-(1-phenylpyrrolidin-2-yl)thiazol-2-yl)-1H-pyrrole-2-carboxamide] | 5.62 µM | 1.1 | 9.91% | 39.8% | 37.6% | > 25 µM | 5.21 µM | > 25 µM | 5.63% | – | – | – |
